Assay results taken from patent US11202789B2, “Method of treating glycogen storage disease” (Viking Therapeutics, Inc., priority 2016, dated 2021).
Entries after “also recorded” stand apart in the source; their conditions may differ.

Legend:
beagle dogs = assay: Compound 2 dosing study in dogs: plasma cholesterol; type: in vivo; settings: for average reduction of total plasma cholesterol levels: Day 15, from baseline
Description: Compound 2 Dosing Study in Dogs: The objective of the study was to determine the effects of oral administration of Compound 2 once-daily for 14 days followed by alternate day dosing for 14 days on plasma cholesterol levels and indicators of thyroid function in beagle dogs. Compound 2 was formulated with Lutrol F68 NF (Poloxomer 188) and carboxymethylcellulose (CMC; sodium salt/high viscosity) and was administered as a suspension in 0.5% CMC/1% Lutrol in deionized water. […] At the end of the treatment cycle (Cycle 1), the dogs were washed out for 4 weeks and then entered into a second 14-day treatment cycle. Cycle 2 employed the same dosing paradigm as Cycle 1, but animals were randomized to Cycle 2 in such a way that the combined dosing groups from the two cycles consisted of 4 different animals (2 males, 2 females) each. At the conclusion of Cycle 2, dosing was continued on alternate days for an additional 14-day period (Cycle 2 Extension). Blood samples were collected at baseline and appropriate time intervals thereafter and analyzed for total plasma cholesterol levels, serum levels of total T4 (tT4), free T4 (fT4), total T3 (tT3), free T3 (fT3), and thyroid stimulating hormone (TSH).

[1] = system: male Zucker Diabetic fatty (ZDF) rats; assay: 4-week (28 days) efficacy and safety study in male Zucker Diabetic fatty (ZDF) rats; type: in vivo
Description: Objectives: The objective of the study was to evaluate the efficacy and safety of Compound 2 treatment for 4 weeks in male Zucker Diabetic fatty (ZDF) rats. Total plasma cholesterol, blood glucose levels, liver and muscle glycogen levels, and a plasma clinical chemistry were evaluated. Additionally, histological and biochemical assessments of hepatic steatosis were performed post-mortem. MB07875, a known human thyroid hormone receptor ligand, was included as a comparator in these studies.
Methods: Eight-week old male ZDF rats (n=5/group) were treated orally with Compound 2 or MB07875 for 28 days. The doses of Compound 2 [in 0.5% carboxymethylcellulose (CMC)] were 0.25, 0.5, 1, 2.5, 5, 15 and 50 mg/kg/day. The dose of MB07875 (in 0.5% CMC) was 0.2 mg/kg/day. Body weight was assessed just prior to treatment and at 24 hours following the last dose. Total plasma cholesterol and blood glucose were measured on a weekly basis. […] In addition, the liver was removed and weighed, and a portion freeze-clamped for glycogen and triglyceride analysis. Another portion was placed in 10% neutral buffered formalin for hematoxalin and eosin (H & E) staining. Finally, the heart was excised and weighed.

[2] = Compound 2 0.25-50 mg/kg/day oral, 28 days

## Cc1cc(OCP2(=O)OCCC(c3cccc(Cl)c3)O2)cc(C)c1Cc1ccc(O)c(C(C)C)c1 (centres unmarked) [Compound 2]
Beagle dogs; 0.1 mg/kg/day oral once-daily
  effects on total plasma cholesterol levels: minimal effects
Beagle dogs; Day 15, 0.3 mg/kg/day oral once-daily for 14 days
  average reduction of total plasma cholesterol levels from baseline: ~22%
Beagle dogs; Day 15, 10 mg/kg/day oral once-daily for 14 days
  average reduction of total plasma cholesterol levels from baseline: ~47%
Beagle dogs; 0.3 mg/kg/day oral once-daily for 14 days
  average reduction of total plasma cholesterol levels: ~28 mg/dL
Beagle dogs; 10 mg/kg/day oral once-daily for 14 days
  average reduction of total plasma cholesterol levels: ~71 mg/dL
Beagle dogs; alternate day dosing for 14 days (Cycle 2 Extension)
  total plasma cholesterol levels relative to vehicle-treated animals: remained reduced relative to vehicle-treated animals to a similar or greater extent than observed after once-daily dosing
[1]; 1 mg/kg/day oral, day 28, vs vehicle
  reduction of total plasma cholesterol: ~25%
[1]; 2.5 mg/kg/day oral, day 28
  total bilirubin increased: ~86%
[1]; 2.5 mg/kg/day oral, day 28, vs vehicle
  blood glucose levels decreased: ~47%
[1]; 15 mg/kg/day oral, day 28
  albumin-to-globulin ratio increased: 21%
  blood urea nitrogen decreased: ~21%
[1]; 50 mg/kg/day oral, 28 days, dose-dependent
  liver glycogen levels reduced: > 90%
[1]; 50 mg/kg/day oral, day 28
  albumin-to-globulin ratio increased: 32%
  alkaline phosphatase decrease: ~42%
  blood urea nitrogen decreased: ~26%
  calcium levels decreased: ~5%
  phosphorus levels increased: ~27%
  total bilirubin increased: ~79%
  total protein levels decreased: ~10%
[1]; 50 mg/kg/day oral, day 28, vs vehicle
  reduction of total plasma cholesterol: ~34%
[1]; [2]
  effect on body weight: no significant effect
  effect on heart weight: no significant effect
  liver triglyceride content: no statistically significant decrease
[1]; Compound 2 0.25-50 mg/kg/day oral, 28 days, vs vehicle
  muscle glycogen levels: unaffected; also recorded: no significant differences
[1]; Compound 2-treated groups (0.25-50 mg/kg/day), any time during the study
  blood glucose levels: not increased
[1]; doses of 5 mg/kg/day and above, oral, day 28
  globulin decreased: ≤ 25%
[1]; doses ≥2.5 mg/kg/day oral, 28 days
  microvesicular steatosis, histological analysis of liver sections: decrease
[1]; highest dose evaluated (50 mg/kd/day), after 28 days of dosing
  decrease in liver glycogen levels relative to vehicle: ~90%
[1]; up to 50 mg/kg/day oral, 28 days
  cardiovascular function (heart rate, systolic and diastolic aortic pressure, LV dP/dt): did not alter
